Here are results for 23 molecules from PubChem BioAssay AID256 (DTP/NCI, 2004).

This assay deals with CD2F1 mice, L1210 leukemia ip, survival T/C. The assay is described as follows: NCI In Vivo Anticancer Drug Screen. Data for tumor model L1210 Leukemia (intraperitoneal) in CD2F1 (CDF1) mice. The settings on record: higher = longer survival. The method, boiled down: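 Activity against a transplanted murine tumor was judged by comparing the compound group with a vehicle group. The outcome in the treated animals was divided by that in the controls.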

Setting [1] is: endpoint: mean survival time, dose: 75.0 mg/kg/injection, schedule: Q01DX001 (ip), vehicle: other.
Where [2] appears, read: endpoint: mean survival time, dose: 150.0 mg/kg/injection, schedule: Q01DX001 (ip), vehicle: other.
The mark [3] stands for this setting: endpoint: mean survival time, dose: 300.0 mg/kg/injection, schedule: Q01DX001 (ip), vehicle: other.
Where [4] appears, read: endpoint: mean survival time, dose: 100.0 mg/kg/injection, schedule: Q01DX001 (ip), vehicle: saline with Tween-80.
Where [5] appears, read: endpoint: mean survival time, dose: 200.0 mg/kg/injection, schedule: Q01DX001 (ip), vehicle: saline with Tween-80.
Where [6] appears, read: endpoint: mean survival time, dose: 400.0 mg/kg/injection, schedule: Q01DX001 (ip), vehicle: saline with Tween-80.
Setting [7] is: endpoint: mean survival time, dose: 100.0 mg/kg/injection, schedule: Q04DX003 (ip), vehicle: saline with Tween-80.
The mark [8] stands for this setting: endpoint: mean survival time, dose: 100.0 mg/kg/injection, schedule: Q04DX002 (ip), vehicle: saline with Tween-80.
Setting [9] is: endpoint: mean survival time, dose: 200.0 mg/kg/injection, schedule: Q04DX002 (ip), vehicle: saline with Tween-80.
The mark [10] stands for this setting: endpoint: mean survival time, dose: 25.0 mg/kg/injection, schedule: Q01DX009 (ip), vehicle: saline with Tween-80.
The mark [11] stands for this setting: endpoint: mean survival time, dose: 100.0 mg/kg/injection, schedule: Q01DX001 (ip), vehicle: other.
Setting [12] is: endpoint: mean survival time, dose: 50.0 mg/kg/injection, schedule: Q01DX009 (ip), vehicle: saline with Tween-80.
Setting [13] is: endpoint: mean survival time, dose: 100.0 mg/kg/injection, schedule: Q01DX009 (ip), vehicle: saline with Tween-80.
[14] abbreviates: endpoint: mean survival time, dose: 200.0 mg/kg/injection, schedule: Q01DX009 (ip), vehicle: saline with Tween-80.
[15] abbreviates: endpoint: mean survival time, dose: 200.0 mg/kg/injection, schedule: Q04DX003 (ip), vehicle: saline with Tween-80.
The mark [16] stands for this setting: endpoint: mean survival time, dose: 400.0 mg/kg/injection, schedule: Q04DX003 (ip), vehicle: saline with Tween-80.

Values joined by “and” are separate entries in the source; they are usually repeats but may differ in a detail not shown here. Identical values can stand only once. Toxic doses and inconclusive results are not listed.

In the case of `CCN(Cc1ccc(Cl)c(Cl)c1)c1ccc2nc(N)nc(N)c2c1C`, the T/C is 97 % of control (endpoint: mean survival time, dose: 1.5 mg/kg/injection, schedule: Q01DX009 (ip), vehicle: water); 106 % of control (endpoint: mean survival time, dose: 3.0 mg/kg/injection, schedule: Q01DX009 (ip), vehicle: water); 101 % of control (endpoint: mean survival time, dose: 24.0 mg/kg/injection, schedule: Q01DX009 (ip), vehicle: water); 103 % of control (endpoint: median survival time, dose: 1.5 mg/kg/injection, schedule: Q01DX009 (ip), vehicle: water); 111 % of control (endpoint: median survival time, dose: 3.0 mg/kg/injection, schedule: Q01DX009 (ip), vehicle: water); 112 % of control (endpoint: median survival time, dose: 6.0 mg/kg/injection, schedule: Q01DX009 (ip), vehicle: water).

Take `CCCCCCCC/C=C\CCCCCCCC(=O)NCCCN(C)CCCNC(=O)CCCCCCC/C=C/CCCCCCCC`: the T/C reads like this: under setting [1], 100 % of control; under setting [2], 104 % of control; under setting [3], 100 % of control.

Regarding `CCOCC(C)(CO)CC(C)CO` (centres undefined), the T/C by setting is: (endpoint: mean survival time, dose: 100.0 mg/kg/injection, schedule: Q01DX001 (ip), vehicle: saline) 101 % of control; (endpoint: mean survival time, dose: 200.0 mg/kg/injection, schedule: Q01DX001 (ip), vehicle: saline) 104 % of control; (endpoint: mean survival time, dose: 400.0 mg/kg/injection, schedule: Q01DX001 (ip), vehicle: saline) 103 % of control.

On to `O=C(O)C(O)(O)C(=O)O`, for which the T/C under setting [4] is 102 % of control, the T/C under setting [5] was 102 % of control and the T/C under setting [6] was 102 % of control.

Regarding `CCCCCCCCCCCCOc1ccc(Cl)cc1Sc1cc(Cl)ccc1OCCCCCCCCCCCC`, the T/C under setting [4] was 92 % of control, the T/C under setting [5] is 93 % of control and the T/C under setting [6] is 86 % of control.

On to `CCOc1ccc([N+](=O)[O-])cc1[N+](=O)[O-]`, for which the T/C was 93 % of control (endpoint: mean survival time, dose: 25.0 mg/kg/injection, schedule: Q04DX003 (ip), vehicle: saline with Tween-80); 98 % of control (endpoint: mean survival time, dose: 50.0 mg/kg/injection, schedule: Q04DX003 (ip), vehicle: saline with Tween-80); 94 % of control under setting [7].

Regarding `COC(=O)C1(C)CCC(=O)O1` (centres undefined), the T/C under setting [8] was 98 % of control; the T/C under setting [9] is 98 % of control; the T/C (endpoint: mean survival time, dose: 400.0 mg/kg/injection, schedule: Q04DX002 (ip), vehicle: saline with Tween-80) is 102 % of control.

Regarding `O=C(Cc1ccccc1)C(Br)C(Br)c1ccccc1` (centres undefined), the T/C is 107 % of control under setting [10] and 92 % of control under setting [7].

In the case of `Cc1nc(N)nc2c1CCC(=O)N2C`, the T/C is 97 % of control (endpoint: mean survival time, dose: 50.0 mg/kg/injection, schedule: Q04DX002 (ip), vehicle: saline with Tween-80); 102 % of control (endpoint: mean survival time, dose: 100.0 mg/kg/injection, schedule: Q01DX001 (ip), vehicle: Klucel (hydroxypropylcellulose) (HPC)); 97 % of control under setting [8]; 90 % of control (endpoint: mean survival time, dose: 200.0 mg/kg/injection, schedule: Q01DX001 (ip), vehicle: Klucel (hydroxypropylcellulose) (HPC)); 97 % of control under setting [9].

As to `c1ccc(C2=NNC(c3ccccc3)=NN2)cc1`, the T/C was 105 % of control under setting [11]; 101 % of control under setting [4]; 94 % of control (endpoint: mean survival time, dose: 200.0 mg/kg/injection, schedule: Q01DX001 (ip), vehicle: other); 97 % of control under setting [5]; 103 % of control (endpoint: mean survival time, dose: 400.0 mg/kg/injection, schedule: Q01DX001 (ip), vehicle: other); 103 % of control under setting [6].

Take `Cc1ccc(S(=O)(=O)N(CCCc2c(C)nc(N)[nH]c2=O)Cc2cccc([N+](=O)[O-])c2)cc1`: the T/C runs as follows: under setting [4], 92 % of control; under setting [5], 96 % of control; under setting [6], 92 % of control.

Turning to `CN=C(N)N/N=C(\C)c1ccc2c(c1)Cc1ccccc1-2`, the T/C was 102 % of control (endpoint: mean survival time, dose: 12.5 mg/kg/injection, schedule: Q01DX009 (ip), vehicle: saline with Tween-80); 105 % of control under setting [10]; 108 % of control under setting [12]; 97 % of control under setting [13]; 91 % of control under setting [14]; 101 % of control (endpoint: median survival time, dose: 12.5 mg/kg/injection, schedule: Q01DX009 (ip), vehicle: saline with Tween-80). Also, the T/C reads like this: (endpoint: median survival time, dose: 25.0 mg/kg/injection, schedule: Q01DX009 (ip), vehicle: saline with Tween-80) 106 % of control; (endpoint: median survival time, dose: 50.0 mg/kg/injection, schedule: Q01DX009 (ip), vehicle: saline with Tween-80) 103 % of control; (endpoint: median survival time, dose: 100.0 mg/kg/injection, schedule: Q01DX009 (ip), vehicle: saline with Tween-80) 101 % of control; (endpoint: median survival time, dose: 200.0 mg/kg/injection, schedule: Q01DX009 (ip), vehicle: saline with Tween-80) 106 % of control.

As to `OCCCCSc1ccccc1`, the T/C reads like this: (endpoint: mean survival time, dose: 75.0 mg/kg/injection, schedule: Q04DX003 (ip), vehicle: saline) 98 % of control; (endpoint: mean survival time, dose: 150.0 mg/kg/injection, schedule: Q04DX003 (ip), vehicle: saline) 98 % of control; (endpoint: mean survival time, dose: 300.0 mg/kg/injection, schedule: Q04DX003 (ip), vehicle: saline) 91 % of control.

Take `Nc1ncnc2oc(-c3ccccc3)c(-c3ccccc3)c12`: the T/C by setting is: under setting [4], 87 % of control; under setting [5], 89 % of control; under setting [6], 87 % of control.

As for `CC1(C)N=C(N)N=C(N)N1c1ccc(CNC(=O)Nc2cccc(S(=O)(=O)F)c2)cc1`, the T/C is, setting by setting: (endpoint: mean survival time, dose: 6.25 mg/kg/injection, schedule: Q01DX009 (ip), vehicle: saline) 115 % of control; under setting [1], 104 % of control; under setting [2], 107 % of control; under setting [3], 115 % of control.

In the case of `S=C=NCCCCCCN=C=S`, the T/C was 104 % of control (endpoint: mean survival time, dose: 6.25 mg/kg/injection, schedule: Q04DX002 (ip), vehicle: saline); 98 % of control (endpoint: mean survival time, dose: 12.5 mg/kg/injection, schedule: Q04DX002 (ip), vehicle: saline); 90 % of control and 102 % of control (endpoint: mean survival time, dose: 25.0 mg/kg/injection, schedule: Q04DX002 (ip), vehicle: saline); 98 % of control (endpoint: mean survival time, dose: 50.0 mg/kg/injection, schedule: Q04DX002 (ip), vehicle: saline).

In the case of `CN(C)[C@@H]1C(=O)C(C(=O)NCNC(Cc2ccc(N(CCCl)CCCl)cc2)C(=O)O)=C(O)[C@@]2(O)C(=O)C3=C(O)c4c(O)cccc4[C@@](C)(O)[C@H]3C[C@@H]12` (some centres undefined), the T/C under setting [11] was 164 % of control.

As for `CCCCN(C)CCNc1cc(C)nc(Nc2nc3ccc(Cl)cc3[nH]2)n1`, the T/C is, setting by setting: (endpoint: mean survival time, dose: 16.5 mg/kg/injection, schedule: Q01DX009 (ip), vehicle: saline with Tween-80) 88 % of control; under setting [10], 97 % of control; (endpoint: mean survival time, dose: 37.5 mg/kg/injection, schedule: Q01DX009 (ip), vehicle: saline with Tween-80) 95 % of control; under setting [12], 90 % of control; under setting [4], 90 % of control; under setting [5], 94 % of control.

For `CCOC(=O)C1=C(C)NC(C)=C(C(=O)OCC)C1c1ccc(OC)cc1`, the T/C is, setting by setting: under setting [13], 104 % of control; under setting [7], 97 % of control; under setting [14], 101 % of control; under setting [15], 94 % of control; (endpoint: mean survival time, dose: 400.0 mg/kg/injection, schedule: Q01DX009 (ip), vehicle: saline with Tween-80) 97 % of control; under setting [16], 92 % of control.

For `CC(=O)Nc1ccc(/C=N/NC(=O)CNC(=O)NCc2ccco2)cc1`, the T/C runs as follows: under setting [12], 96 % of control; under setting [13], 92 % of control; under setting [14], 94 % of control.

In the case of `O=[N+]([O-])c1ccc(Cl)c(CCl)c1`, the T/C was 94 % of control under setting [13]; 100 % of control under setting [7]; 93 % of control under setting [14]; 100 % of control under setting [15]; 102 % of control under setting [16].

Turning to `COC1OC(CO)C2OC(=O)NC2C1O` (centres undefined), the T/C is, setting by setting: (endpoint: mean survival time, dose: 100.0 mg/kg/injection, schedule: Q04DX003 (ip), vehicle: saline) 98 % of control; (endpoint: mean survival time, dose: 200.0 mg/kg/injection, schedule: Q04DX003 (ip), vehicle: saline) 94 % of control; (endpoint: mean survival time, dose: 400.0 mg/kg/injection, schedule: Q04DX003 (ip), vehicle: saline) 100 % of control.

As to `CCN1/C(=C\c2ccc3cc(OC)ccc3[n+]2CC)[Se]c2ccc(OC)cc21`, the T/C (endpoint: mean survival time, dose: 9.5 mg/kg/injection, schedule: Q01DX001 (ip), vehicle: other) is 86 % of control.
